Source: US8895504B2, “Amylin derivatives” (priority 2008, dated 2014)
*1 amine or outer side, *2 acyl side, *3 side chain or, on linkers, in order; H or OH if unused. Where a SMILES comes first, the peptide text is derived from it. Bridges are numbered along the chain shown (N, C = ends). Side-chain parts run from the residue outwards. The star is where a group is joined. C20 diacid = O=C(O)CCCCCCCCCCCCCCCCCCC(=O)*; C18 diacid = O=C(O)CCCCCCCCCCCCCCCCC(=O)*; γGlu = O=C(O)[C@H](CCC(=O)[*:2])N[*:1]

Each compound was assayed against T1, Amylin 3(a) receptor (human calcitonin receptor (CTa) and RAMP-3) (Homo sapiens, UniProt O60896+P30988) (assay: Luciferase assay (III), BHK Amylin 3(a)//CRE-luc cells). Conditions: BHK cells with Amylin 3(a) receptor and CRE luciferase reporter, 4 hours incubation; read-out: Potency Luciferase.
T1 construct: expressed in transfected cells; host or cells: BHK570 cells, stably transfected with a CRE-luciferase reporter
Format: cell-based
Outline: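 Read-out is CRE-driven luciferase luminescence, taken 30 min after LucLite addition at room temperature. Compounds were incubated 4 h at 37° C in assay medium (10% FBS, 10 mM Hepes, pH 7,4). The cell line is BHK570 co-transfected with human calcitonin receptor CTa and RAMP-3, seeded overnight before use.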

T1 sequence (O60896 24-148): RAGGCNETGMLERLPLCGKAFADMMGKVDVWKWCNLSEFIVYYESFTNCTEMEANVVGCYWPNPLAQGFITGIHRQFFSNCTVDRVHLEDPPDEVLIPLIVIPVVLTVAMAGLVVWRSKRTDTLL
T1 sequence (P30988 25-474): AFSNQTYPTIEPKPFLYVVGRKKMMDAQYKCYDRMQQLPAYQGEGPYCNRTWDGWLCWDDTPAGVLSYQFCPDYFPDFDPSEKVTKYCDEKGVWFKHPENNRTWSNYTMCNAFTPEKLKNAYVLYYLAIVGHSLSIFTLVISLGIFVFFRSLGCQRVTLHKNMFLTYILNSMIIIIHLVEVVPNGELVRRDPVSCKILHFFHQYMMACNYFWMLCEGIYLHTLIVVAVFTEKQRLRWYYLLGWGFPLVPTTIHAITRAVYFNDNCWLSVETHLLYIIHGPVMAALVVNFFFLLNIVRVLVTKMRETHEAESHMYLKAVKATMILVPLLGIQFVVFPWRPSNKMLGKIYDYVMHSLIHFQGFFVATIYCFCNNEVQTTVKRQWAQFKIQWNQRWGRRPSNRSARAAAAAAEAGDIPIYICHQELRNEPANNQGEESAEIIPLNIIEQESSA

Row | SMILES | EC50
1 | CC[C@H](C)[C@H](NC(=O)[C@@H]1CCCN1C(=O)[C@H](CCC(=O)O)NC(=O)[C@H](Cc1ccccc1)NC(=O)[C@H](CC(N)=O)NC(=O)[C@H](CC(N)=O)NC(=O)[C@H](CO)NC(=O)[C@H](CO)NC(=O)[C@H](Cc1c[nH]cn1)NC(=O)[C@H](Cc1c[nH]cn1)NC(=O)[C@H](CC(C)C)NC(=O)[C@H](Cc1ccccc1)NC(=O)[C@H](CC(N)=O)NC(=O)[C@H](C)NC(=O)[C@H](CC(C)C)NC(=O)[C@H](CCCNC(=N)N)NC(=O)[C@H](CCC(N)=O)NC(=O)[C@@H](NC(=O)[C@H](C)NC(=O)[C@@H]1CSSC[C@H](NC(=O)CC[C@H](NC(=O)CCCCCCCCCCCCCCCCCCC(=O)O)C(=O)O)C(=O)N[C@@H](CC(N)=O)C(=O)N[C@@H]([C@@H](C)O)C(=O)N[C@@H](C)C(=O)N[C@@H]([C@@H](C)O)C(=O)N1)[C@@H](C)O)C(=O)N[C@@H](CC(C)C)C(=O)N1CCC[C@H]1C(=O)N1CCC[C@H]1C(=O)N[C@H](C(=O)N[C@@H](CC(N)=O)C(=O)N[C@H](C(=O)NCC(=O)N[C@@H](CO)C(=O)N[C@@H](CC(N)=O)C(=O)N[C@H](C(=O)N[C@@H](Cc1ccc(O)cc1)C(N)=O)[C@@H](C)O)C(C)C)[C@@H](C)O [Example 44, N-alpha-[(S)-4-Carboxy-4-(19-carboxynonadecanoylamino)butyryl]-[His17,Glu24]-pramlintide (2-37)] ({C20 diacid-γGlu}-CNTATCATQRLANFLHHSSNNFEPILPPTNVGSNTY-NH2; disulfide 1-6) | 0.1 nM
2 | CC[C@H](C)[C@H](NC(=O)[C@@H]1CCCN1C(=O)CNC(=O)[C@H](Cc1ccccc1)NC(=O)[C@H](CC(N)=O)NC(=O)[C@H](CC(N)=O)NC(=O)[C@H](CO)NC(=O)[C@H](CO)NC(=O)[C@H](Cc1c[nH]cn1)NC(=O)[C@H](Cc1c[nH]cn1)NC(=O)[C@H](CC(C)C)NC(=O)[C@H](Cc1ccccc1)NC(=O)[C@H](CC(N)=O)NC(=O)[C@H](C)NC(=O)[C@H](CC(C)C)NC(=O)[C@H](CCCNC(=N)N)NC(=O)[C@H](CCC(N)=O)NC(=O)[C@@H](NC(=O)[C@H](C)NC(=O)[C@@H]1CSSC[C@H](NC(=O)[C@H](CCCNC(=N)N)NC(=O)[C@H](Cc2c[nH]cn2)NC(=O)[C@H](Cc2c[nH]cn2)NC(=O)[C@H](CCC(=O)O)NC(=O)CC[C@H](NC(=O)CCCCCCCCCCCCCCCCCCC(=O)O)C(=O)O)C(=O)N[C@@H](CC(N)=O)C(=O)N[C@@H]([C@@H](C)O)C(=O)N[C@@H](C)C(=O)N[C@@H]([C@@H](C)O)C(=O)N1)[C@@H](C)O)C(=O)N[C@@H](CC(C)C)C(=O)N1CCC[C@H]1C(=O)N1CCC[C@H]1C(=O)N[C@H](C(=O)N[C@@H](CC(N)=O)C(=O)N[C@H](C(=O)NCC(=O)N[C@@H](CO)C(=O)N[C@@H](CC(N)=O)C(=O)N[C@H](C(=O)N[C@@H](Cc1ccc(O)cc1)C(N)=O)[C@@H](C)O)C(C)C)[C@@H](C)O [Example 67, N-alpha-[(S)-4-Carboxy-4-(19-carboxynonadecanoylamino)butyryl]-Glu-His-His-[Arg1,His17]-pramlintide] ({C20 diacid-γGlu}-EHHRCNTATCATQRLANFLHHSSNNFGPILPPTNVGSNTY-NH2; disulfide 5-10) | 0.1 nM
3 | CC[C@H](C)[C@H](NC(=O)[C@@H]1CCCN1C(=O)CNC(=O)[C@H](Cc1ccccc1)NC(=O)[C@H](CC(N)=O)NC(=O)[C@H](CC(N)=O)NC(=O)[C@H](CO)NC(=O)[C@H](CO)NC(=O)[C@H](Cc1c[nH]cn1)NC(=O)[C@H](Cc1c[nH]cn1)NC(=O)[C@H](CC(C)C)NC(=O)[C@H](Cc1ccccc1)NC(=O)[C@H](CC(N)=O)NC(=O)[C@H](C)NC(=O)[C@H](CC(C)C)NC(=O)[C@H](CCCNC(=N)N)NC(=O)[C@H](CCC(N)=O)NC(=O)[C@@H](NC(=O)[C@H](C)NC(=O)[C@@H]1CSSC[C@H](NC(=O)[C@H](Cc2c[nH]cn2)NC(=O)CC[C@H](NC(=O)CCCCCCCCCCCCCCCCC(=O)O)C(=O)O)C(=O)N[C@@H](CC(N)=O)C(=O)N[C@@H]([C@@H](C)O)C(=O)N[C@@H](C)C(=O)N[C@@H]([C@@H](C)O)C(=O)N1)[C@@H](C)O)C(=O)N[C@@H](CC(C)C)C(=O)N1CCC[C@H]1C(=O)N1CCC[C@H]1C(=O)N[C@H](C(=O)N[C@@H](CC(N)=O)C(=O)N[C@H](C(=O)NCC(=O)N[C@@H](CO)C(=O)N[C@@H](CC(N)=O)C(=O)N[C@H](C(=O)N[C@@H](Cc1ccc(O)cc1)C(N)=O)[C@@H](C)O)C(C)C)[C@@H](C)O [Example 32, N-alpha-[(S)-4-Carboxy-4-(17-carboxyheptadecanoylamino)butyryl]-[His1,His17]-pramlintide] ({C18 diacid-γGlu}-HCNTATCATQRLANFLHHSSNNFGPILPPTNVGSNTY-NH2; disulfide 2-7) | 0.08 nM
4 | CC[C@H](C)[C@H](NC(=O)[C@@H]1CCCN1C(=O)CNC(=O)[C@H](Cc1ccccc1)NC(=O)[C@H](CC(N)=O)NC(=O)[C@H](CC(N)=O)NC(=O)[C@H](CO)NC(=O)[C@H](CO)NC(=O)[C@H](Cc1c[nH]cn1)NC(=O)[C@H](CCCNC(=N)N)NC(=O)[C@H](CC(C)C)NC(=O)[C@H](Cc1ccccc1)NC(=O)[C@H](CC(N)=O)NC(=O)[C@H](C)NC(=O)[C@H](CC(C)C)NC(=O)[C@H](CCCNC(=N)N)NC(=O)[C@H](CCC(N)=O)NC(=O)[C@@H](NC(=O)[C@H](C)NC(=O)[C@@H]1CSSC[C@H](NC(=O)[C@H](CCCCN)NC(=O)[C@H](CCCNC(=N)N)NC(=O)CC[C@H](NC(=O)CCCCCCCCCCCCCCCCC(=O)O)C(=O)O)C(=O)N[C@@H](CC(N)=O)C(=O)N[C@@H]([C@@H](C)O)C(=O)N[C@@H](C)C(=O)N[C@@H]([C@@H](C)O)C(=O)N1)[C@@H](C)O)C(=O)N[C@@H](CC(C)C)C(=O)N1CCC[C@H]1C(=O)N1CCC[C@H]1C(=O)N[C@H](C(=O)N[C@@H](CC(N)=O)C(=O)N[C@H](C(=O)NCC(=O)N[C@@H](CO)C(=O)N[C@@H](CC(N)=O)C(=O)N[C@H](C(=O)N[C@@H](Cc1ccc(O)cc1)C(N)=O)[C@@H](C)O)C(C)C)[C@@H](C)O [Example 26, N-alpha-[(S)-4-Carboxy-4-(17-carboxyheptadecanoylamino)butyryl]-Arg-[Arg17]-pramlintide] ({C18 diacid-γGlu}-RKCNTATCATQRLANFLRHSSNNFGPILPPTNVGSNTY-NH2; disulfide 3-8) | 0.05 nM
5 | CC[C@H](C)[C@H](NC(=O)[C@@H]1CCCN1C(=O)CNC(=O)[C@H](Cc1ccccc1)NC(=O)[C@H](CC(N)=O)NC(=O)[C@H](CC(=O)O)NC(=O)[C@H](CO)NC(=O)[C@H](CO)NC(=O)[C@H](Cc1c[nH]cn1)NC(=O)[C@H](Cc1c[nH]cn1)NC(=O)[C@H](CC(C)C)NC(=O)[C@H](Cc1ccccc1)NC(=O)[C@H](CC(N)=O)NC(=O)[C@H](C)NC(=O)[C@H](CC(C)C)NC(=O)[C@H](CCCNC(=N)N)NC(=O)[C@H](CCC(N)=O)NC(=O)[C@@H](NC(=O)[C@H](C)NC(=O)[C@@H]1CSSC[C@H](NC(=O)[C@@H](N)CCCCN)C(=O)N[C@@H](CCCCNC(=O)[C@H](CCC(=O)O)NC(=O)[C@H](CCCNC(=N)N)NC(=O)[C@H](CCC(=O)O)NC(=O)[C@H](CCC(=O)O)NC(=O)CCCCCCCCCCCCCCCCCCC(=O)O)C(=O)N[C@@H]([C@@H](C)O)C(=O)N[C@@H](C)C(=O)N[C@@H]([C@@H](C)O)C(=O)N1)[C@@H](C)O)C(=O)N[C@@H](CC(C)C)C(=O)N1CCC[C@H]1C(=O)N1CCC[C@H]1C(=O)N[C@H](C(=O)N[C@@H](CC(N)=O)C(=O)N[C@H](C(=O)NCC(=O)N[C@@H](CO)C(=O)N[C@@H](CC(N)=O)C(=O)N[C@H](C(=O)N[C@@H](Cc1ccc(O)cc1)C(N)=O)[C@@H](C)O)C(C)C)[C@@H](C)O [Example 2, N-epsilon3-(19-carboxynonadecanoyl-Glu-Glu-Arg-Glu)-[Lys3,His17,Asp21]-pramlintide] (H-KCK([Glu-Arg-Glu-Glu-C20 diacid])TATCATQRLANFLHHSSDNFGPILPPTNVGSNTY-NH2; disulfide 2-7) | 0.9 nM
